{
  "source": "patent US11857550B2",
  "about": "“Benzathine analogs” (University of Pittsburgh—Of the Commonwealth System of …, priority 2012, dated 2024)",
  "key": {"C57BL6 mice [1]": {"test_system": "C57BL6 mice", "test": "TPA induced ear edema", "assay_type": "in vivo", "settings": "topical, 8, 40, 200 ug/ear, 18 h after TPA", "method": "FIGS. 15A-15C. […] FIG. 15A-15C. C57BL6 mice were deeply anesthetized with ketamine (80-100 mg/kg i.p.) and xylazine (10 mg/kg i.p.). 20 μl of ethanol solution of BC-1215 was applied to ears at 8, 40, 200 ug/ear 30 min after TPA administration (2 μg/ear). Comparisons included equal volumes of ethanol (vehicle control). 18 h after TPA administration, mice were euthanized; the thickness of the ear was measured using a micrometer (FIG. 15B). Ear punch biopsies were also taken immediately, weighed and graphed (FIG. 15C).\nFIGS. 23A-23D. […] Different dose of BC-1261 was applied to ears of mice at various doses 30 min after TPA administration (2 μg/ear). A. Gross comparisons were made with equal volumes of ethanol as a vehicle control (CON). 18 h after TPA administration, mice were euthanized and the thickness of the ear was measured using a micrometer (B). Autopsy sample were also taken to measure MPO activity (C) and calculate ear edema (D). The data represent n=6 mice/group, *P<0.05 versus TPA.\nTopical application of BC-1215 as an anti-inflammatory agent was tested in a model of 12-O-tetradecanoylphorbol-13-acetate (TPA) induced ear edema (Bralley et. al., J Inflamm (LOnd), 2008. 5:p.1). Briefly, 20 μl of an ethanol solution of BC-1215 was applied to ears of mice at 8, 40, and 200 ug/ear for 30 min after TPA administration (2 μg/ear). Comparisons included equal volumes of ethanol (vehicle control). 18 h after TPA administration, mice were euthanized; the thickness of the ear was measured using a micrometer. Ear punch biopsies were also taken immediately, weighed, and graphed."}, "human PBMC cells": {"test_system": "human PBMC cells", "test": "LPS-induced IL1β and TNFα cytokine release from PBMC cells (ELISA)", "assay_type": "cell-based", "settings": "LPS-exposed human PBMC", "method": "FIGS. 20A-20J is a table depicting benzathine compounds, and assay results. PBMC cells (0.6 ml at 1.5*10^6/ml) were treated with 2 ug/ml LPS for 16 hrs along with each compound at different concentrations. IL1β and TNFα cytokine release were monitored by ELISA to calculate the IC50. U937 monocyte (0.6 ml at 1.5*10^6/ml) were treated with each compound at different concentrations for 16 h. Cells were then stained with Trypan blue to differentiate dead cells, and calculate the LD50. Therapeutic index (TI)=LD50/IC50. Compounds marked in red are high value targets (low IC50, high LD50) and require further testing in vivo.\nBriefly, compounds were added to human PBMC cells at different concentrations that were exposed to […] and cytokine secretion was monitored by ELISA to determine the IC50. Compounds were also added to U937 monocytes at different concentrations, and cells were stained with trypan blue to determine the LD50. […] Several functional studies were undertaken to assess anti-inflammatory effects focusing on BC-1215."}, "MLE cells": {"test_system": "MLE cells", "test": "MLE cells protein immunoblotting", "assay_type": "cell-based, murine", "settings": "different concentrations, 16 h", "text": "(§1) FIGS. 10A-10E. BC-1215 inhibits FBXO3 and decreases TRAF protein levels. FIG. 10A. […] FIG. 10B. In vitro ubiquitination assays. […] FIG. 10C. […] Cells were collected and assayed for immunoblotting. FIG. 10D. […] FIG. 10E.\n(§2) BC-1215 inhibits FBXO3 and decreases TRAF protein levels. […] Cells were collected and assayed for protein immunoblotting."}, "C57BL6 mice [2]": {"test_system": "C57BL6 mice", "test": "DSS induced (acute) colitis", "assay_type": "in vivo", "settings": "200 ug IP daily, 3.5% DSS up to five days", "method": "FIGS. 17A-17D. BC-1215 reduces DSS induced colonic inflammation. FIGS. 17A-FIG. 17C. C57BL6 mice were fed with water containing 3.5% dextran sulfate sodium (DSS) for up to five days. Mice were treated with either vehicle or 100 ug of BC-1215 daily (via IP injection). Mice were then euthanized; the length of the colon was measured and graphed in (FIG. 17A). Colonic tissues were also analyzed for IL1β (FIG. 17B) and TNFα (FIG. 17C) by ELISA. (n=4 mice/group, *p<0.05 versus DSS) FIG. 17D, H&E staining was performed on colonic samples. (n=4 mice/group, *p<0.05 versus DSS)\nFIGS. 24A-24E. […] A-D. C57BL6 mice were fed with water ad lib containing 3.5% dextran sulfate sodium (DSS) for up to five days. Mice were treated with either vehicle (control [CON]) or BC-1261 (150 μg) daily (via an i.p. injection), or BC-1261 were administered into drinking water at 30 μg/ml (po). Mice were then euthanized and the length of the colon was measured and graphed in (A-B). Colonic tissues were also analyzed for TNFα (C) and IL6(D). E. H&E staining was performed on colonic sections. The data represent n=4 mice/group, *P<0.05 versus DSS and **P<0.05 versus CON.\nBC-1215 ameliorates DSS induced colitis. BC-1215 was also tested in a mouse colitis model to confirm its anti-inflammatory activity. Briefly, C57BL6 mice were fed with water containing 3.5% dextran sulfate sodium (DSS) for up to five days. Mice were treated with either vehicle or 200 ug of BC-1215 daily (via IP injection). Mice were then euthanized; the length of colons was measured. […] Colonic tissue cytokine levels were analyzed. […] Thus, the FBXO3 inhibitor BC-1215 suppresses inflammation in chemical induced colitis model in mice."}, "FBXO3": {"biological_target": "FBXO3 (Homo sapiens, UniProt Q9UK99)", "sequence (Q9UK99 whole entry)": "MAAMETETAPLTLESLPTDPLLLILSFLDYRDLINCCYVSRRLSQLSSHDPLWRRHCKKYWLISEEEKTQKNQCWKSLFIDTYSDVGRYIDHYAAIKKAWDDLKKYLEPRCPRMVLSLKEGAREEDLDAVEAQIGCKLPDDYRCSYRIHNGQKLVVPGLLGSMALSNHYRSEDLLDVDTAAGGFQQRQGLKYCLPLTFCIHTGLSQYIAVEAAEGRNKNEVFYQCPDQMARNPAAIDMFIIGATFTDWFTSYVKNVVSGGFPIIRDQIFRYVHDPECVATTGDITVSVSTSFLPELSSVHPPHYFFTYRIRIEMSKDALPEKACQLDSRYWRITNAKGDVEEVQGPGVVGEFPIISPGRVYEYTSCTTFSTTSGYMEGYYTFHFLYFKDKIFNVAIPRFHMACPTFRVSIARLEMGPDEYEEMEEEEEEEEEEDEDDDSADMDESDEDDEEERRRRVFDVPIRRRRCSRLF", "sequence (P63208 whole entry partner)": "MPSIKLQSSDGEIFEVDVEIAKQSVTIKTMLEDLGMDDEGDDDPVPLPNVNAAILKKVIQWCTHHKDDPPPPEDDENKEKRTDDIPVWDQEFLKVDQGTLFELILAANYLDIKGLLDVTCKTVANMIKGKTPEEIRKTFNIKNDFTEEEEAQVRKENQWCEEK", "sequence (Q13616 whole entry partner)": "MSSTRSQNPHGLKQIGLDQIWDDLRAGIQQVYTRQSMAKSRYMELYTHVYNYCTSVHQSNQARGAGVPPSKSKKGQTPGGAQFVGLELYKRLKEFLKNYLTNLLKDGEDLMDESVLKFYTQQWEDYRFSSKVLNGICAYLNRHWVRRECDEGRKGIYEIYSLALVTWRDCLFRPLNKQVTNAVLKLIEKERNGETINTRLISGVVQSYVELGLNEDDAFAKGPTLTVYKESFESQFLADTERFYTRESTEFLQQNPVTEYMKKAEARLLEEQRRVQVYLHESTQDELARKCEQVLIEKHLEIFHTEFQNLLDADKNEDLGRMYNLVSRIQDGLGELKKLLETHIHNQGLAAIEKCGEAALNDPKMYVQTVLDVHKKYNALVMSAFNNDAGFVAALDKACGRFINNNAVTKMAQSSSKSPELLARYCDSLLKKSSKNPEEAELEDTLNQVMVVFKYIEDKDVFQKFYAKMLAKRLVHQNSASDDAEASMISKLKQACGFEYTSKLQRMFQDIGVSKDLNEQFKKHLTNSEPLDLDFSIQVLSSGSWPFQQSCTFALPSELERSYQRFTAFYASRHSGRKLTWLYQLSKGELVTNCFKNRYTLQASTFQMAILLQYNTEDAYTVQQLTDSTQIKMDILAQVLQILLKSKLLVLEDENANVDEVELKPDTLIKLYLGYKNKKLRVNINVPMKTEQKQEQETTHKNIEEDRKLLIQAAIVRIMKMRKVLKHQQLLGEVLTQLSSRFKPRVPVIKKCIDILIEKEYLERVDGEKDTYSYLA", "sequence (P62877 whole entry partner)": "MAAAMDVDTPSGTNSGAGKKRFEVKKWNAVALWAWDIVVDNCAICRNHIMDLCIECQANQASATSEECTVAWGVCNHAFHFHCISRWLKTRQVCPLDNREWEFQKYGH", "test": "In vitro ubiquitination assay, SCFFBXO3 complex with V5-FBXL2 substrate", "assay_type": "biochemical", "settings": "increased concentration of compound", "text": "as §1, §2"}},
  "data": [
    {"molecule": "c1ccc(-c2ccc(CNCCNCc3ccc(-c4ccccn4)cc3)cc2)nc1", "note": "[BC-1215]", "values": [
      {"measurement": "ear edema", "setting": "C57BL6 mice [1]", "result": "significantly resolve edema"},
      {"measurement": "ear thickness", "setting": "C57BL6 mice [1]", "result": "significantly reduced"},
      {"measurement": "ear weight (punch biopsies)", "setting": "C57BL6 mice [1]", "result": "significantly reduced"},
      {"measurement": "IC50 (cytokine secretion)", "setting": "human PBMC cells", "result": "high"},
      {"measurement": "FBXL2 protein levels", "setting": "MLE cells", "result": "increased FBXL2 protein levels in a dose dependent manner"},
      {"measurement": "TRAF protein levels", "setting": "MLE cells", "result": "decreasing TRAF protein levels"},
      {"measurement": "IL1β levels in colon tissues", "setting": "C57BL6 mice [2]", "result": "remarkable reduction"},
      {"measurement": "TNFα levels in colon tissues", "setting": "C57BL6 mice [2]", "result": "remarkable reduction"},
      {"measurement": "colon length", "setting": "C57BL6 mice [2]", "result": "no significant decrease in colon length compared to control"},
      {"measurement": "colonic tissue injury (H&E)", "setting": "C57BL6 mice [2]", "result": "significantly reduced"},
      {"measurement": "FBXO3 catalyzed FBXL2 polyubiquitination", "setting": "FBXO3", "result": "able to inhibit FBXO3 catalyzed FBXL2 polyubiquitination"}
    ]}
  ]
}
